Measurements as given in US11839679B2, “Gamma-diketones for treatment and prevention of aging skin and wrinkles” (BioSplice Therapeutics, Inc., priority 2014, dated 2023).

System: fine lines, wrinkles in the outer canthus of the eyes (crow's feet area)
Assay: Panelist self-assessment questionnaire, Example 1
Assay type: in vivo, human
Conditions: for Q2 appearance of my skin around either of my eyes, Average Score: Score 1 (Better) to 5 (Worse); for Q4 any discomfort, other than slight tingling, in the treated area during the study, Average Score: Score 1 (No) to 5 (Yes, everyday lasting more than an hour); for Q1 My wrinkles in the eye area have improved, Average Score: Score 1 (Strongly agree) to 5 (Strongly disagree); for Q3 how do you feel about the treated area surrounding your eyes and the appearance of wrinkles, Average Score: Score 1 (Very Satisfied) to 5 (Very Dissatisfied); for Q2 appearance of my skin around either of my eyes, % Responders Score 1: Score 1 = Better; for Q4 any discomfort, other than slight tingling, in the treated area during the study, % Responders Score 1: Score 1 = No; for Q1 My wrinkles in the eye area have improved, % Responders Score 1: Score 1 = Strongly agree; for Q3 how do you feel about the treated area surrounding your eyes and the appearance of wrinkles, % Responders Score 1: Score 1 = Very Satisfied; for Q1 My wrinkles in the eye area have improved, % Responders Score 2: Score 2 = Agree; for Q2 appearance of my skin around either of my eyes, % Responders Score 2: Score 2 = Little better; for Q3 how do you feel about the treated area surrounding your eyes and the appearance of wrinkles, % Responders Score 2: Score 2 = Satisfied; for Q4 any discomfort, other than slight tingling, in the treated area during the study, % Responders Score 2: Score 2 = Yes, occasional discomfort lasting less than an hour; for Q1 My wrinkles in the eye area have improved, % Responders Score 3: Score 3 = Neither agree or disagree
Procedure: Three groups of women were recruited to evaluate and compare the efficacy of three anti-aging test products (targeting the periorbital eye area) intended to reduce the appearance of fine lines, wrinkles in the outer canthus of the eyes (crow's feet area) over a 12 week period. Wrinkle assessment was conducted instrumentally using a Visioscan image analysis system. Effectiveness of the test product was evaluated using panelist self-assessment via questionnaire responses comprised of 3-4 questions (Q1, Q2, Q3 & Q4). Each stage in the progression of treatments was photographically documented using a High Resolution Scientifically Matched Photography technique. Image analysis was utilized to quantify changes in fine lines and crow's feet condition observed in the Scientifically Matched Photographs.
Subject Selection: • Number: Six subjects (two per group) to complete the study. • Sex: Females • Race: Caucasian/Asian/Hispanic • Age Range: 40 through 60 years old
Test samples: • Topical 0.15% of Compound #222 in Oil (a 50/50 mixture of • Propylene Glycol Dicaprylate/Dicaprate and Caprylic/Capric Triglyceride) (Cohort 1) • Topical 0.15% of Compound #222 in PEG400 (Cohort 2) • Topical 0.05% of Compound #222 in PEG400 (Cohort 3)
All subjects were instructed to use the test material once a day, as part of their daily skin care routine. Immediately following baseline evaluations, the subjects were issued the product with the following instructions:
GROUP 1—Compound #222 Topical 0.15% in oil (Cohort 1): The subjects were instructed to hold the bottle at an angle such that the roller-ball was at bottom and apply the roller-ball to the periorbital area, including the crow's feet area, 2-3 times, starting from the area under the eye (and above the cheekbone) and moving up towards the outer tip of the eye-brow. After 2-3 rolls, they were able to see wetness on the treated area. This procedure was repeated for the other eye.
GROUPS 2 & 3 Compound #222 Topical 0.15% in PEG (Cohort 2) & Compound #222 Topical 0.05% in PEG (Cohort 3): The subjects were instructed to hold the dispenser upright with one hand and with the tip of the index finger on the pump (similar to holding a spray container), pour a small amount of the product into the palm of their other hand by pumping once or twice. The product was then applied on to the periorbital area, including the crow's feet area, of both eyes with their index finger.
[…] After acclimating to ambient conditions, High Resolution Scientifically Matched Photographs were be taken and biophysical measurements (Surface Evaluation of Living Skin via Visioscan) were repeated using the standard template to identify test sites on the face. In addition (during the acclimation period) all participants were be asked to fill out a self-assessment questionnaire.
The source data was Visioscan and PhotoGrammetrix Image Analysis readings along with subjective assessments, which were totaled and reported as average scores. Photographs were placed side by side as to compare the photographs of before and after application of the test product in the eye area. Wrinkle reduction analysis source data consisted of crow's feet area quantification in relative units (px), collected at baseline and, the week 2, 4, 8 and 12 evaluations. The data obtained via Visioscan and from PhotoGrammetrix Image Analysis was quoted as % differences from baseline at each of the previously described time points. A paired t-test analysis was conducted in order to compare the results of post test product application measurements to baseline measurements where applicable. Statistical significance was established if p≤(α=0.05) was calculated.

[1] = Day 7, Topical 0.05% in PEG (Cohort 3)
[2] = Day 7, Topical 0.15% in Oil (Cohort 1)
[3] = Day 7, Topical 0.15% in PEG (Cohort 2)
[4] = Day 14, Topical 0.05% in PEG (Cohort 3)
[5] = Day 14, Topical 0.15% in Oil (Cohort 1)
[6] = Day 14, Topical 0.15% in PEG (Cohort 2)

O=C(CCC(=O)c1ccc2c(c1)OCO2)c1ccccc1 [#222]
Q2 appearance of my skin around either of my eyes, Average Score [1]: 1.50 | Q4 any discomfort, other than slight tingling, in the treated area during the study, Average Score [1]: 1.00 | Q1 My wrinkles in the eye area have improved, Average Score [1]: 2.00 | Q3 how do you feel about the treated area surrounding your eyes and the appearance of wrinkles, Average Score [1]: 2.00 | Q2 appearance of my skin around either of my eyes, Average Score [2]: 2.50 | Q4 any discomfort, other than slight tingling, in the treated area during the study, Average Score [2]: 1.50 | Q1 My wrinkles in the eye area have improved, Average Score [2]: 3.50 | Q3 how do you feel about the treated area surrounding your eyes and the appearance of wrinkles, Average Score [2]: 2.50 | Q2 appearance of my skin around either of my eyes, Average Score [3]: 2.50 | Q4 any discomfort, other than slight tingling, in the treated area during the study, Average Score [3]: 1.50 | Q1 My wrinkles in the eye area have improved, Average Score [3]: 3.50 | Q3 how do you feel about the treated area surrounding your eyes and the appearance of wrinkles, Average Score [3]: 2.50 | Q2 appearance of my skin around either of my eyes, Average Score [4]: 1.50 | Q4 any discomfort, other than slight tingling, in the treated area during the study, Average Score [4]: 1.00 | Q1 My wrinkles in the eye area have improved, Average Score [4]: 1.50 | Q3 how do you feel about the treated area surrounding your eyes and the appearance of wrinkles, Average Score [4]: 1.50 | Q2 appearance of my skin around either of my eyes, Average Score [5]: 2.50 | Q4 any discomfort, other than slight tingling, in the treated area during the study, Average Score [5]: 1.50 | Q1 My wrinkles in the eye area have improved, Average Score [5]: 3.00 | Q3 how do you feel about the treated area surrounding your eyes and the appearance of wrinkles, Average Score [5]: 2.00 | Q2 appearance of my skin around either of my eyes, Average Score [6]: 2.50 | Q4 any discomfort, other than slight tingling, in the treated area during the study, Average Score [6]: 2.50 | Q1 My wrinkles in the eye area have improved, Average Score [6]: 3.00 | Q3 how do you feel about the treated area surrounding your eyes and the appearance of wrinkles, Average Score [6]: 3.00 | Q2 appearance of my skin around either of my eyes, % Responders Score 1 [1]: 50% | Q2 appearance of my skin around either of my eyes, % Responders Score 1 [2]: 0% | Q2 appearance of my skin around either of my eyes, % Responders Score 1 [3]: 0% | Q2 appearance of my skin around either of my eyes, % Responders Score 1 [4]: 50% | Q2 appearance of my skin around either of my eyes, % Responders Score 1 [5]: 0% | Q2 appearance of my skin around either of my eyes, % Responders Score 1 [6]: 0% | Q4 any discomfort, other than slight tingling, in the treated area during the study, % Responders Score 1 [1]: 100% | Q4 any discomfort, other than slight tingling, in the treated area during the study, % Responders Score 1 [2]: 50% | Q4 any discomfort, other than slight tingling, in the treated area during the study, % Responders Score 1 [3]: 50% | Q4 any discomfort, other than slight tingling, in the treated area during the study, % Responders Score 1 [4]: 100% | Q4 any discomfort, other than slight tingling, in the treated area during the study, % Responders Score 1 [5]: 50% | Q4 any discomfort, other than slight tingling, in the treated area during the study, % Responders Score 1 [6]: 50% | Q1 My wrinkles in the eye area have improved, % Responders Score 1 [1]: 0% | Q1 My wrinkles in the eye area have improved, % Responders Score 1 [2]: 0% | Q1 My wrinkles in the eye area have improved, % Responders Score 1 [3]: 0% | Q1 My wrinkles in the eye area have improved, % Responders Score 1 [4]: 50% | Q1 My wrinkles in the eye area have improved, % Responders Score 1 [5]: 0% | Q1 My wrinkles in the eye area have improved, % Responders Score 1 [6]: 0% | Q3 how do you feel about the treated area surrounding your eyes and the appearance of wrinkles, % Responders Score 1 [1]: 50% | Q3 how do you feel about the treated area surrounding your eyes and the appearance of wrinkles, % Responders Score 1 [2]: 0% | Q3 how do you feel about the treated area surrounding your eyes and the appearance of wrinkles, % Responders Score 1 [3]: 0% | Q3 how do you feel about the treated area surrounding your eyes and the appearance of wrinkles, % Responders Score 1 [4]: 50% | Q3 how do you feel about the treated area surrounding your eyes and the appearance of wrinkles, % Responders Score 1 [5]: 50% | Q3 how do you feel about the treated area surrounding your eyes and the appearance of wrinkles, % Responders Score 1 [6]: 0% | Q1 My wrinkles in the eye area have improved, % Responders Score 2 [1]: 100% | Q1 My wrinkles in the eye area have improved, % Responders Score 2 [2]: 50% | Q1 My wrinkles in the eye area have improved, % Responders Score 2 [3]: 0% | Q1 My wrinkles in the eye area have improved, % Responders Score 2 [4]: 50% | Q1 My wrinkles in the eye area have improved, % Responders Score 2 [5]: 50% | Q1 My wrinkles in the eye area have improved, % Responders Score 2 [6]: 50% | Q2 appearance of my skin around either of my eyes, % Responders Score 2 [1]: 50% | Q2 appearance of my skin around either of my eyes, % Responders Score 2 [2]: 50% | Q2 appearance of my skin around either of my eyes, % Responders Score 2 [3]: 50% | Q2 appearance of my skin around either of my eyes, % Responders Score 2 [4]: 50% | Q2 appearance of my skin around either of my eyes, % Responders Score 2 [5]: 50% | Q2 appearance of my skin around either of my eyes, % Responders Score 2 [6]: 50% | Q3 how do you feel about the treated area surrounding your eyes and the appearance of wrinkles, % Responders Score 2 [1]: 0% | Q3 how do you feel about the treated area surrounding your eyes and the appearance of wrinkles, % Responders Score 2 [2]: 50% | Q3 how do you feel about the treated area surrounding your eyes and the appearance of wrinkles, % Responders Score 2 [3]: 50% | Q3 how do you feel about the treated area surrounding your eyes and the appearance of wrinkles, % Responders Score 2 [4]: 50% | Q3 how do you feel about the treated area surrounding your eyes and the appearance of wrinkles, % Responders Score 2 [5]: 0% | Q3 how do you feel about the treated area surrounding your eyes and the appearance of wrinkles, % Responders Score 2 [6]: 50% | Q4 any discomfort, other than slight tingling, in the treated area during the study, % Responders Score 2 [1]: 0% | Q4 any discomfort, other than slight tingling, in the treated area during the study, % Responders Score 2 [2]: 50% | Q4 any discomfort, other than slight tingling, in the treated area during the study, % Responders Score 2 [3]: 50% | Q4 any discomfort, other than slight tingling, in the treated area during the study, % Responders Score 2 [4]: 0% | Q4 any discomfort, other than slight tingling, in the treated area during the study, % Responders Score 2 [5]: 50% | Q4 any discomfort, other than slight tingling, in the treated area during the study, % Responders Score 2 [6]: 0% | Q1 My wrinkles in the eye area have improved, % Responders Score 3 [1]: 0% | Q1 My wrinkles in the eye area have improved, % Responders Score 3 [2]: 0% | Q1 My wrinkles in the eye area have improved, % Responders Score 3 [3]: 50% | Q1 My wrinkles in the eye area have improved, % Responders Score 3 [4]: 0% | Q1 My wrinkles in the eye area have improved, % Responders Score 3 [5]: 0% | Q1 My wrinkles in the eye area have improved, % Responders Score 3 [6]: 0%
